Results reported in patent US6525001B1, “Substituted pyrimidine and pyridine herbicides” (Mid-American Commercialization Corporation, priority 1997, dated 2003).

Assays:
Test in all cases: Test B pre-/postemergence
Type in all cases: in vivo
Set-up in all cases: key: 0 is no effect; 10 is complete control
[1] = test system: bedstraw (Galium aparine)
How it was run: (§1)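 Response scores run from 0, meaning no effect, to 10, meaning complete control, assigned by eye relative to controls twelve to sixteen days after spraying. Treatment was both preemergence on planted seed and postemergence on plants at the 1- to 4-leaf stage.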

[2] = test system: blackgrass (Alopecurus myosuroides)
How it was run: as §1

[3] = test system: broadleaf signalgrass (Brachiaria decumbens)
How it was run: as §1

[4] = test system: cocklebur (Xanthium strumarium)
How it was run: as §1

[5] = test system: corn (Zea mays)
How it was run: as §1

[6] = test system: crabgrass (Digitaria sanguinalis)
How it was run: as §1

[7] = test system: giant foxtail (Setaria faberii)
How it was run: as §1

[8] = test system: momingglory (Ipomoea hederacea)
How it was run: as §1

[9] = test system: pigweed (Amaranthus retroflexus)
How it was run: as §1

[10] = test system: purple nutsedge (Cyperus rotundus)
How it was run: as §1

[11] = test system: sugar beet (Beta vulgaris)
How it was run: as §1

[12] = test system: velvetleaf (Abutilon theophrasti)
How it was run: as §1

[13] = test system: wheat (Triticum aestivum)
How it was run: as §1

[14] = test system: wild oat (Avena fatua)
How it was run: as §1

Cc1cnc(-c2ccc(C(F)(F)F)cc2)nc1Cc1cccc(C(F)(F)F)c1 [Example 1, 5-methyl-2-[4-(trifluoromethyl)phenyl]-4-[[3-(trifluoromethyl)phenyl]methyl]pyrimidine]
Plant response rating, Bedstraw ([1]; Rate 62 g/ha, Postemergence): 9
Bedstraw plant response rating ([1]; Rate 62 g/ha, Preemergence): 8
Plant response rating, Bedstraw ([1]; Rate 125 g/ha, Postemergence): 9
Bedstraw plant response rating ([1]; Rate 125 g/ha, Preemergence): 8
Plant response rating, Bedstraw ([1]; Rate 250 g/ha, Postemergence): 9
Plant response rating, Bedstraw ([1]; Rate 250 g/ha, Preemergence): 8
Plant response rating, Bedstraw ([1]; Rate 500 g/ha, Postemergence): 10
Plant response rating, Bedstraw ([1]; Rate 500 g/ha, Preemergence): 9
Plant response rating, Blackgrass ([2]; Rate 62 g/ha, Postemergence): 7
Blackgrass plant response rating ([2]; Rate 62 g/ha, Preemergence): 8
Plant response rating, Blackgrass ([2]; Rate 125 g/ha, Postemergence): 7
Blackgrass plant response rating ([2]; Rate 125 g/ha, Preemergence): 9
Plant response rating, Blackgrass ([2]; Rate 250 g/ha, Postemergence): 9
Plant response rating, Blackgrass ([2]; Rate 250 g/ha, Preemergence): 10
Plant response rating, Blackgrass ([2]; Rate 500 g/ha, Postemergence): 9
Plant response rating, Blackgrass ([2]; Rate 500 g/ha, Preemergence): 10
Plant response rating, B. signalgrass ([3]; Rate 62 g/ha, Postemergence): 3
B. signalgrass plant response rating ([3]; Rate 62 g/ha, Preemergence): 9
Plant response rating, B. signalgrass ([3]; Rate 125 g/ha, Postemergence): 6
B. signalgrass plant response rating ([3]; Rate 125 g/ha, Preemergence): 9
Plant response rating, B. signalgrass ([3]; Rate 250 g/ha, Postemergence): 8
Plant response rating, B. signalgrass ([3]; Rate 250 g/ha, Preemergence): 9
Plant response rating, B. signalgrass ([3]; Rate 500 g/ha, Postemergence): 9
Plant response rating, B. signalgrass ([3]; Rate 500 g/ha, Preemergence): 9
Plant response rating, Cocklebur ([4]; Rate 62 g/ha, Postemergence): 7
Cocklebur plant response rating ([4]; Rate 62 g/ha, Preemergence): 2
Plant response rating, Cocklebur ([4]; Rate 125 g/ha, Postemergence): 8
Cocklebur plant response rating ([4]; Rate 125 g/ha, Preemergence): 2
Plant response rating, Cocklebur ([4]; Rate 250 g/ha, Postemergence): 9
Plant response rating, Cocklebur ([4]; Rate 250 g/ha, Preemergence): 3
Plant response rating, Cocklebur ([4]; Rate 500 g/ha, Postemergence): 10
Plant response rating, Cocklebur ([4]; Rate 500 g/ha, Preemergence): 10
Plant response rating, Corn ([5]; Rate 62 g/ha, Postemergence): 4
Corn plant response rating ([5]; Rate 62 g/ha, Preemergence): 1
Plant response rating, Corn ([5]; Rate 125 g/ha, Postemergence): 4
Corn plant response rating ([5]; Rate 125 g/ha, Preemergence): 1
Plant response rating, Corn ([5]; Rate 250 g/ha, Postemergence): 4
Plant response rating, Corn ([5]; Rate 250 g/ha, Preemergence): 2
Plant response rating, Corn ([5]; Rate 500 g/ha, Postemergence): 7
Plant response rating, Corn ([5]; Rate 500 g/ha, Preemergence): 2
Plant response rating, Crabgrass ([6]; Rate 62 g/ha, Postemergence): 4
Crabgrass plant response rating ([6]; Rate 62 g/ha, Preemergence): 10
Plant response rating, Crabgrass ([6]; Rate 125 g/ha, Postemergence): 9
Crabgrass plant response rating ([6]; Rate 125 g/ha, Preemergence): 10
Plant response rating, Crabgrass ([6]; Rate 250 g/ha, Postemergence): 9
Plant response rating, Crabgrass ([6]; Rate 250 g/ha, Preemergence): 10
Plant response rating, Crabgrass ([6]; Rate 500 g/ha, Postemergence): 9
Plant response rating, Crabgrass ([6]; Rate 500 g/ha, Preemergence): 10
Plant response rating, Giant foxtail ([7]; Rate 62 g/ha, Postemergence): 3
Giant foxtail plant response rating ([7]; Rate 62 g/ha, Preemergence): 10
Plant response rating, Giant foxtail ([7]; Rate 125 g/ha, Postemergence): 7
Giant foxtail plant response rating ([7]; Rate 125 g/ha, Preemergence): 10
Plant response rating, Giant foxtail ([7]; Rate 250 g/ha, Postemergence): 9
Plant response rating, Giant foxtail ([7]; Rate 250 g/ha, Preemergence): 10
Plant response rating, Giant foxtail ([7]; Rate 500 g/ha, Postemergence): 9
Plant response rating, Giant foxtail ([7]; Rate 500 g/ha, Preemergence): 10
Plant response rating, Morningglory ([8]; Rate 62 g/ha, Postemergence): 4
Morningglory plant response rating ([8]; Rate 62 g/ha, Preemergence): 10
Plant response rating, Morningglory ([8]; Rate 125 g/ha, Postemergence): 8
Morningglory plant response rating ([8]; Rate 125 g/ha, Preemergence): 10
Plant response rating, Morningglory ([8]; Rate 250 g/ha, Postemergence): 10
Plant response rating, Morningglory ([8]; Rate 250 g/ha, Preemergence): 10
Plant response rating, Morningglory ([8]; Rate 500 g/ha, Postemergence): 10
Plant response rating, Morningglory ([8]; Rate 500 g/ha, Preemergence): 10
Plant response rating, Redroot pigweed ([9]; Rate 62 g/ha, Postemergence): 9
Redroot pigweed plant response rating ([9]; Rate 62 g/ha, Preemergence): 10
Plant response rating, Redroot pigweed ([9]; Rate 125 g/ha, Postemergence): 9
Redroot pigweed plant response rating ([9]; Rate 125 g/ha, Preemergence): 10
Plant response rating, Redroot pigweed ([9]; Rate 250 g/ha, Postemergence): 10
Plant response rating, Redroot pigweed ([9]; Rate 250 g/ha, Preemergence): 10
Plant response rating, Redroot pigweed ([9]; Rate 500 g/ha, Postemergence): 10
Plant response rating, Redroot pigweed ([9]; Rate 500 g/ha, Preemergence): 10
Nutsedge plant response rating ([10]; Rate 62 g/ha, Preemergence): 0
Nutsedge plant response rating ([10]; Rate 125 g/ha, Preemergence): 0
Plant response rating, Nutsedge ([10]; Rate 250 g/ha, Postemergence): 1
Plant response rating, Nutsedge ([10]; Rate 500 g/ha, Postemergence): 2
Plant response rating, Nutsedge ([10]; Rate 500 g/ha, Preemergence): 1
Plant response rating, Sugarbeets ([11]; Rate 62 g/ha, Postemergence): 10
Sugarbeets plant response rating ([11]; Rate 62 g/ha, Preemergence): 10
Plant response rating, Sugarbeets ([11]; Rate 125 g/ha, Postemergence): 10
Sugarbeets plant response rating ([11]; Rate 125 g/ha, Preemergence): 10
Plant response rating, Sugarbeets ([11]; Rate 250 g/ha, Postemergence): 10
Plant response rating, Sugarbeets ([11]; Rate 250 g/ha, Preemergence): 10
Plant response rating, Sugarbeets ([11]; Rate 500 g/ha, Postemergence): 10
Plant response rating, Sugarbeets ([11]; Rate 500 g/ha, Preemergence): 10
Plant response rating, Velvetleaf ([12]; Rate 62 g/ha, Postemergence): 7
Velvetleaf plant response rating ([12]; Rate 62 g/ha, Preemergence): 6
Plant response rating, Velvetleaf ([12]; Rate 125 g/ha, Postemergence): 8
Velvetleaf plant response rating ([12]; Rate 125 g/ha, Preemergence): 10
Plant response rating, Velvetleaf ([12]; Rate 250 g/ha, Postemergence): 9
Plant response rating, Velvetleaf ([12]; Rate 250 g/ha, Preemergence): 10
Plant response rating, Velvetleaf ([12]; Rate 500 g/ha, Postemergence): 9
Plant response rating, Velvetleaf ([12]; Rate 500 g/ha, Preemergence): 10
Plant response rating, Wheat ([13]; Rate 62 g/ha, Postemergence): 2
Wheat plant response rating ([13]; Rate 62 g/ha, Preemergence): 1
Plant response rating, Wheat ([13]; Rate 125 g/ha, Postemergence): 2
Wheat plant response rating ([13]; Rate 125 g/ha, Preemergence): 5
Plant response rating, Wheat ([13]; Rate 250 g/ha, Postemergence): 3
Plant response rating, Wheat ([13]; Rate 250 g/ha, Preemergence): 8
Plant response rating, Wheat ([13]; Rate 500 g/ha, Postemergence): 5
Plant response rating, Wheat ([13]; Rate 500 g/ha, Preemergence): 9
Plant response rating, Wild oats ([14]; Rate 62 g/ha, Postemergence): 4
Wild oats plant response rating ([14]; Rate 62 g/ha, Preemergence): 8
Plant response rating, Wild oats ([14]; Rate 125 g/ha, Postemergence): 7
Wild oats plant response rating ([14]; Rate 125 g/ha, Preemergence): 9
Plant response rating, Wild oats ([14]; Rate 250 g/ha, Postemergence): 7
Plant response rating, Wild oats ([14]; Rate 250 g/ha, Preemergence): 9
Plant response rating, Wild oats ([14]; Rate 500 g/ha, Postemergence): 9
Plant response rating, Wild oats ([14]; Rate 500 g/ha, Preemergence): 10
